According to the supplement of paper PMC13380429:

What was measured:
Details in all cases: 72 h
[1] = tested on: U2OS; assay: cell viability relative to DMSO; higher = less toxic
[2] = tested on: Vero E6; assay: as above
[3] = tested on: Calu-3; assay: as above
[4] = tested on: Caco-2; assay: as above
[5] = tested on: HepG2; assay: as above
[6] = tested on: U2OS; assay: drug sensitivity score (DSS) for viability; higher = more toxic; extreme values may be limits of the assay
[7] = tested on: Vero E6; assay: as above
[8] = tested on: Calu-3; assay: as above
[9] = tested on: Caco-2; assay: as above
[10] = tested on: HepG2; assay: as above
[11] = tested on: U2OS; assay: relative viability EC50 (midpoint between 100% and the lowest measured viability); higher = less toxic
[12] = tested on: Vero E6; assay: as above
[13] = tested on: Calu-3; assay: as above
[14] = tested on: Caco-2; assay: as above
[15] = tested on: HepG2; assay: as above

Row | SMILES | cell viability ([1]; 1 nM) | cell viability ([1]; 10 nM) | cell viability ([1]; 100 nM) | cell viability ([1]; 1000 nM) | cell viability ([1]; 10000 nM) | cell viability ([2]; 1 nM) | cell viability ([2]; 10 nM) | cell viability ([2]; 100 nM) | cell viability ([2]; 1000 nM) | cell viability ([2]; 10000 nM) | cell viability ([3]; 1 nM) | cell viability ([3]; 10 nM) | cell viability ([3]; 100 nM) | cell viability ([3]; 1000 nM) | cell viability ([3]; 10000 nM) | cell viability ([4]; 1 nM) | cell viability ([4]; 10 nM) | cell viability ([4]; 100 nM) | cell viability ([4]; 1000 nM) | cell viability ([4]; 10000 nM) | cell viability ([5]; 1 nM) | cell viability ([5]; 10 nM) | cell viability ([5]; 100 nM) | cell viability ([5]; 1000 nM) | cell viability ([5]; 10000 nM) | drug sensitivity score [6] | drug sensitivity score [7] | drug sensitivity score [8] | drug sensitivity score [9] | drug sensitivity score [10] | relative viability EC50 [11] | relative viability EC50 [12] | relative viability EC50 [13] | relative viability EC50 [14] | relative viability EC50 [15]
1 | CN/C(=N\c1ccc(C2=NNC(=O)CC2C)cc1)NC#N (stereo not given) [siguazodan] | 103% | 103% | 97.6% | 105% | 99.7% | 103% | 104% | 104% | 98.9% | 105% | 102% | 100% | 98.9% | 102% | 98.6% | 105% | 97.2% | 97.2% | 96.6% | 90.6% | 114% | 91.1% | 104% | 107% | 105% | 0 | 0 | 0 | 0 | 0 | > 10 µM | > 10 µM | > 10 µM | > 10 µM | > 10 µM
2 | O=NO [sodium-nitrite] | 95.4% | 97.1% | 100% | 94.2% | 97.4% | 106% | 113% | 95.2% | 103% | 99.2% | 94.3% | 100% | 102% | 94.8% | 91.8% | 87.7% | 93.5% | 94% | 92.3% | 97.3% | 105% | 102% | 97.4% | 98% | 101% | 0 | 0 | 0 | 0 | 0 | > 10 µM | > 10 µM | > 10 µM | > 10 µM | > 10 µM
3 | C[C@@H]1CN(c2c(F)c(N)c3c(=O)c(C(=O)O)cn(C4CC4)c3c2F)C[C@H](C)N1 [sparfloxacin] | 101% | 102% | 95.9% | 101% | 99% | 98.6% | 103% | 103% | 98.6% | 96% | 97.6% | 93% | 106% | 110% | 97.5% | 96.3% | 101% | 95.1% | 93.4% | 98% | 110% | 98.6% | 111% | 94.7% | 92.5% | 0 | 0 | 0 | 0 | 0 | > 10 µM | > 10 µM | > 10 µM | > 10 µM | > 10 µM
4 | CC(=O)S[C@@H]1CC2=CC(=O)CC[C@]2(C)[C@H]2CC[C@@]3(C)[C@@H](CC[C@@]34CCC(=O)O4)[C@H]12 [spironolactone] | 92.9% | 98.6% | 97.4% | 101% | 102% | 101% | 97.2% | 97.1% | 88.7% | 102% | 90.7% | 95.4% | 99.1% | 94.5% | 102% | 95.1% | 96.7% | 100% | 99.6% | 102% | 104% | 99.7% | 110% | 107% | 107% | 0 | 0 | 0 | 0 | 0 | > 10 µM | > 10 µM | > 10 µM | > 10 µM | > 10 µM
5 | C[N+](C)(C)CCOC(=O)CCC(=O)OCC[N+](C)(C)C [succinylcholine-chloride] | 98.7% | 103% | 101% | 101% | 102% | 108% | 95.8% | 102% | 89.7% | 102% | 101% | 103% | 101% | 94.8% | 106% | 103% | 97.3% | 99.9% | 97.2% | 104% | 106% | 97.2% | 106% | 93.3% | 102% | 0 | 0 | 0 | 0 | 0 | > 10 µM | > 10 µM | > 10 µM | > 10 µM | > 10 µM
6 | Cc1ccccc1/N=N/c1ccc(/N=N/c2c(O)ccc3ccccc23)c(C)c1 [sudan-IV] | 97.8% | 102% | 93.3% | 95.3% | 90.5% | 104% | 100% | 104% | 110% | 87.4% | 98.2% | 107% | 96.6% | 107% | 95.2% | 96.3% | 119% | 113% | 120% | 94.5% | 96.3% | 111% | 104% | 81.2% | 92.7% | 0 | 0 | 0 | 0 | 2.2 | > 10 µM | > 10 µM | > 10 µM | > 10 µM | > 10 µM
